The nature of series [1]: In-vivo pharmacokinetics in dogs, oral administration. Set-up: species or system male Beijing Marshall beagles. The conditions noted are these: for AUC(0-inf) / Cmax / half-life: male, beagle, dog, oral 10 mg/kg, plasma; for F: oral 10 mg/kg vs intravenous 1 mg/Kg. As to the method: In this experimental example, the in-vivo pharmacokinetic evaluation was made for dogs by intravenous injection and oral administration.
Experimental methods and conditions: male Beijing Marshall beagles, 12 to 18 months old; the beagles were subjected to administration half an hour after feeding; 5 min, 15 min, 30 min, 1 hr, 2 hr, 4 hr, 8 hr, 24 hr, 48 hr and 72 hr after the beagles were subjected to a single intravenous injection of 1 mg/Kg of a compound to be tested (solvent 5% DMSO/10% Solutol/85% Saline), or 15 min, 30 min, 1 hr, 2 hr, 4 hr, 6 hr, 8 hr, 24 hr, 48 hr and 72 hr after the beagles were subjected to oral intragastric administration of 10 mg/kg (solvent 5% DMSO/10% Solutol/85% Saline), blood was collected from orbits, not less than 50 μL of each sample was collected, and heparin sodium was used for anticoagulation; the collected samples were placed on ice, and the plasma was centrifugally separated within 1 hour for testing. The drug concentration in the plasma was detected by liquid chromatography tandem mass spectrometry (LC/MS/MS), and the pharmacokinetic parameters were calculated by Phoenix WinNonlin software. Embodiment 82 in CN110612294 A was taken as a control sample 1.

The test system of another series is VCaP cells. Kind of series: Inhibitory effect on VCaP cell proliferation (Cell Titer Glo). The series is classed as cell-based. The conditions noted are these: Homo sapiens, 144 h; for IC50: VCaP cells, 5% FBS and 0.1 nM R1881, 6 days; for Emax: maximum degree of VCaP cell proliferation inhibition, 6 days. As to the method:
A tumor cell line Vcap (ATCC Cat. No. CRL-2876) was respectively cultured with DMEM (Gibco Cat. No. 11965-092) medium containing 10% FBS (Gibco Cat. No. 10099-141C). During testing, Vcap cells were replaced with a DMEM culture fluid containing 5% FBS and 0.1 nM R1881 (Sigma Cat. No. R0908). The assay method was as follows:
Vcap cells were seeded to a 384-well plate (Perkin Elmer Cat. No. 6007460) at a cell density of 1200 cells/well and a volume of 20 μL/well; after the cells were incubated overnight in a carbon dioxide incubator (Thermo), the prepared compound solutions with different concentrations were added at a volume of 5 μL/well; meanwhile, a corresponding solvent was provided as a control; after the cells were continuously incubated in the incubator for 6 days, the cell plate and the contents thereof were equilibrated to room temperature; 25 μL of a Cell Titer Glor (Promega Cat. No. G7573) reagent was added to each well; after vibration and uniform mixing, incubation in the dark was performed for 10-30 minutes, and a signal value was detected with Envision microplate reader (PerkinElmer).
A percentage inhibition rate of compound-treated wells was calculated through solvent control wells on the plate, GraphPad prism was used to fit the percentage inhibition rate data corresponding to different concentrations, and IC50 value was calculated by a 4-parameter nonlinear logistic formula.
Emax: a maximum degree of VCaP cell proliferation inhibition. IC50: a compound concentration required to achieve half the maximum degree of VCaP cell proliferation inhibition.
A general note: ATP-based viability assays read luminescence as a measure of living cells.

Series [2] is described as follows: In-vivo pharmacokinetics in mice, oral administration. Also noted: species or system male CD1 mice. Conditions: for AUC(0-inf) / Cmax / half-life: male, CD1, mouse, oral 10 mg/kg, plasma; for F: oral 10 mg/kg vs intravenous 1 mg/Kg. As to the method:
In this experimental example, the in-vivo pharmacokinetic evaluation was made for mice by intravenous injection and oral administration.
Experimental methods and conditions: male CD1 mice, 6 to 8 weeks old; all animals had free access to food and water; 5 min, 15 min, 30 min, 1 hr, 2 hr, 4 hr, 8 hr and 24 hr after the mice were subjected to a single intravenous injection of 1 mg/Kg of a compound to be tested (solvent 5% DMSO/15% Solutol/80% Saline) (saline in the present application all means a saline solution), or 15 min, 30 min, 1 hr, 2 hr, 4 hr, 6 hr, 8 hr and 24 hr after the mice were subjected to oral intragastric administration of 10 mg/kg (solvent 5% DMSO/10% Solutol/85% Saline), blood was collected from orbits, not less than 50 μL of each sample was collected, and heparin sodium was used for anticoagulation; the collected samples were placed on ice, and the plasma was centrifugally separated within 1 hour for testing. The drug concentration in the plasma was detected by liquid chromatography tandem mass spectrometry (LC/MS/MS), and the pharmacokinetic parameters were calculated by Phoenix WinNonlin software. Embodiment 82 in CN110612294 A was taken as a control sample 1.

Broadly, the AUC(0-inf) is total exposure, with the tail of the curve extrapolated. Read a low AUC(0-inf) as less exposure. Broadly, the Cmax is the maximum level reached in the sampled fluid or tissue. By half-life is commonly meant the time needed for the level to fall by half in the phase considered. Read a low half-life as fast loss. Broadly, the IC50 is the concentration that gives 50% inhibition.

For the compound `CC1(C)[C@H](NC(=O)c2ccc(N3CCC(CN4CCN(c5ccc6c(=O)n([C@H]7CCC(=O)NC7=O)ncc6c5)CC4)CC3)cc2)C(C)(C)[C@H]1Oc1ccc(C#N)c(Cl)c1` [Compound 28A], in series [1], the area under the curve AUC(0-inf) was found to be 15400 ng·h/mL, the concentration peaked (Cmax) at 868 ng/mL, the half-life was 34.3 h and the F was 33.9%. Also, in the series with VCaP cells, the IC50 was 9.7 nM and the Emax came out at 74%.
`CC1(C)[C@H](NC(=O)c2ccc(N3CCC(CN4CCN(c5ccc6c(=O)n(C7CCC(=O)NC7=O)nc(F)c6c5)CC4)CC3)cc2)C(C)(C)[C@H]1Oc1ccc(C#N)c(Cl)c1` (some centres unmarked) [Compound 29]: in series [2], the AUC(0-inf) came out at 13400 ng·h/mL, the concentration peaked (Cmax) at 677 ng/mL, the half-life was 7.91 h and the F is 24.1%. For the same compound, in the series with VCaP cells, the IC50 is 56 nM and the Emax is 66%.
For `CC1(C)[C@H](NC(=O)c2ccc(N3CCC(CN4CCN(c5ccc6c(=O)n(C7CCC(=O)NC7=O)ncc6c5)CC4)CC3)cc2)C(C)(C)[C@H]1Oc1ccc(C#N)c(Cl)c1` (some centres unmarked) [Compound 1], in series [1], the area under the curve AUC(0-inf) was 14100 ng·h/mL, the concentration peaked (Cmax) at 482 ng/mL, the half-life is 19.9 h and the F is on record as 44.1%. Moreover, in series [2], the area under the curve AUC(0-inf) stood at 18900 ng·h/mL, the concentration peaked (Cmax) at 1260 ng/mL, the half-life is 6.22 h and the F was determined as 68.8%.

The values are drawn from patent US12234223B2, “Phthalazinone compound, and preparation method therefor and medical use thereof” (SHANGHAI JEMINCARE PHARMACEUTICALS CO., LTD, priority 2020, dated 2025).
